Patent US7012082B2, “Method of correcting HERG channel dysfunction” (priority 2002, dated 2006)

What was measured:
[1] = target: T1, HERG N470D mutant channels (Homo sapiens, UniProt Q12809, N470D); conditions: cultured at physiological temperature in low concentrations of drug; earlier publications; cited from earlier work
HERG N470D = target: T2, HERG N470D (Homo sapiens, UniProt Q12809, N470D); conditions: cultured at physiological temperature in low concentrations of drug; earlier publications; cited from earlier work
T2 construct: expressed in transfected cells

[2] = target: T1, HERG N470D mutant channels

Row | Compound | HERG current after drug washout, N470D cells (pharmacological rescue) [1] | mature HERG protein band on western blot, N470D cells (HERG N470D) | rescue of N470D current [2]
1 | COc1cc(N)c(Cl)cc1C(=O)NC1CCN(CCCOc2ccc(F)cc2)CC1OC (stereo not drawn) [cisapride] | large amplitude HERG current could be recorded | appearance on western blot analysis of the mature HERG protein band | 
2 | Sodium-phenylbutyrate [4PBA] |  |  | did not rescue N470D current
